The target in one assay is T1, TR-α (Homo sapiens, UniProt P10827).
T1 sequence (P10827 1-410 isoform P10827-2): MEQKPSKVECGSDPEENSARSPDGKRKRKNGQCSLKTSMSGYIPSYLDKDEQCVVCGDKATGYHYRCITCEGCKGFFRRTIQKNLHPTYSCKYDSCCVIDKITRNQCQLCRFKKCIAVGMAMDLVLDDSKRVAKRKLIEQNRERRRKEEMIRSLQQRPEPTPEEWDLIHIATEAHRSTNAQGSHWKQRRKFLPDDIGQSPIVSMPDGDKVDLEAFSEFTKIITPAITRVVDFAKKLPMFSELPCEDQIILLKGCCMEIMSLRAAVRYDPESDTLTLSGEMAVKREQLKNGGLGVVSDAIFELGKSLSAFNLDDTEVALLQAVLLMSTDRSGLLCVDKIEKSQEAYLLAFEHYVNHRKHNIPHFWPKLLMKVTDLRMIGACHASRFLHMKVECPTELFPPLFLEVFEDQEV
Nature of the assay: In vitro TR-α activity (in-house protocol). The class given is cell-based. The conditions noted are these: read-out: TR-α Fold Induction w.r.t T3(100 nm); for fold induction at 0.001 µM: Conc. 1 nM; for fold induction at 0.01 µM: Conc. 10 nM; for fold induction at 0.1 µM: Conc. 100 nM; for fold induction at 1 µM: Conc. 1000 nM. The method, then: (§1) In vitro TR-α & TR-β activities were determined as per in-house protocols and the results of representative compounds are provided in tables 1 & 2 below as a proof of the efficacies of the novel class of compounds disclosed above.

The next assay addresses T2, TR-β (Homo sapiens, UniProt P10828).
T2 sequence (P10828 1-461): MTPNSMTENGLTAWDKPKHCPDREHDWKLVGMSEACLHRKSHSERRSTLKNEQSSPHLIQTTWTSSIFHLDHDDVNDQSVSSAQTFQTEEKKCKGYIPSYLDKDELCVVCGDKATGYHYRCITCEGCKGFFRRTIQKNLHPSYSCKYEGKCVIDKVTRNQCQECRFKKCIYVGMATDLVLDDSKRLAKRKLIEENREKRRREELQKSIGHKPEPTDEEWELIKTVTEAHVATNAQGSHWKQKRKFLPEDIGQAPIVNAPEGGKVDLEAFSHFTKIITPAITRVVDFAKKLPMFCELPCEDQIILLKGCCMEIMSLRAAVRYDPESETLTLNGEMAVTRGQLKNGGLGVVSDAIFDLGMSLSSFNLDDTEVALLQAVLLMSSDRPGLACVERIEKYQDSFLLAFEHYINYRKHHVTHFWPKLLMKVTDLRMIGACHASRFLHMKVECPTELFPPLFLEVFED
Nature of the assay: In vitro TR-β activity (in-house protocol). The format is cell-based. The conditions noted are these: read-out: TR-β Fold Induction w.r.t T3(100 nm); for fold induction at 0.001 µM: Conc. 1 nM; for fold induction at 0.01 µM: Conc. 10 nM; for fold induction at 0.1 µM: Conc. 100 nM; for fold induction at 1 µM: Conc. 1000 nM. As to the method:
as §1

As to `O=C(O)CON=Cc1cc(Br)c(Oc2ccc(O)c(S(=O)(=O)N3CCCC3)c2)c(Br)c1` [Example 41, 2-(((3,5-dibromo-4-(4-hydroxy-3-(pyrrolidin-1-ylsulfonyl)phenoxy)benzylidene)amino)oxy)acetic acid], on TR-α, the fold induction at 0.001 µM came to 12.6, the fold induction at 0.01 µM was 12.8, the fold induction at 0.1 µM turned out to be 17.7 and the fold induction at 1 µM was determined as 46.1. On TR-β, the fold induction at 0.001 µM came to 6.51, the fold induction at 0.01 µM was 6.74, the fold induction at 0.1 µM turned out to be 14 and the fold induction at 1 µM is 58.1.
On to `CC(C)c1cc(Oc2c(Cl)cc(C=NOCC(=O)O)cc2Cl)ccc1O` [Example 1, 2-(((3,5-dichloro-4-(4-hydroxy-3-isopropylphenoxy)benzylidene)amino)oxy)acetic acid], for which, on TR-α, the fold induction at 0.001 µM worked out at 11.8, the fold induction at 0.01 µM was 25.7, the fold induction at 0.1 µM was 73.5 and the fold induction at 1 µM came to 99. On TR-β, the fold induction at 0.001 µM was found to be 7.72, the fold induction at 0.01 µM turned out to be 20.6, the fold induction at 0.1 µM came out at 52.6 and the fold induction at 1 µM came to 53.4.
As to `CCC(C)c1cc(Oc2c(Br)cc(C=NOC(C)(C)C(=O)O)cc2Br)ccc1O` (centres unmarked) [Example 15, 2-(((3,5-dibromo-4-(3-(sec-butyl)-4-hydroxyphenoxy)benzylidene)amino)oxy)-2-methyl propanoic acid], at TR-α, the fold induction at 0.001 µM was found to be 35.7, the fold induction at 0.01 µM amounted to 77.7, the fold induction at 0.1 µM was 119 and the fold induction at 1 µM worked out at 123. Moreover, on TR-β, the fold induction at 0.001 µM came out at 23, the fold induction at 0.01 µM is 84.3, the fold induction at 0.1 µM was 118 and the fold induction at 1 µM was determined as 72.3.
Regarding `CC(ON=Cc1cc(Br)c(Oc2ccc(O)c(C(C)(C)C)c2)c(Br)c1)C(=O)O` (centres unmarked) [Example 24, 2-(((3,5-dibromo-4-(3-(tert-butyl)-4-hydroxyphenoxy)benzylidene)amino)oxy)propanoic acid], on TR-α, the fold induction at 0.001 µM was determined as 18.5, the fold induction at 0.01 µM worked out at 52.1, the fold induction at 0.1 µM came out at 102 and the fold induction at 1 µM was 121. Also, on TR-β, the fold induction at 0.001 µM was 16.6, the fold induction at 0.01 µM turned out to be 48.9, the fold induction at 0.1 µM amounted to 105 and the fold induction at 1 µM is 86.1.
As to `CCC(C)c1cc(Oc2c(Cl)cc(C=NOCC(=O)O)cc2Cl)ccc1O` (centres unmarked) [Example 2, 2-(((4-(3-(sec-butyl)-4-hydroxyphenoxy)-3,5-dichlorobenzylidene)amino)oxy)acetic acid], at TR-α, the fold induction at 0.001 µM stood at 10.2, the fold induction at 0.01 µM amounted to 26.7, the fold induction at 0.1 µM turned out to be 66.7 and the fold induction at 1 µM is 108. On TR-β, the fold induction at 0.001 µM turned out to be 14, the fold induction at 0.01 µM was found to be 34.5, the fold induction at 0.1 µM was found to be 79.4 and the fold induction at 1 µM worked out at 115.
Turning to `CCC(C)c1cc(Oc2c(Cl)cc(C=NOC(C)C(=O)O)cc2Cl)ccc1O` (centres unmarked) [Example 23, 2-(((4-(3-(sec-butyl)-4-hydroxyphenoxy)-3,5-dichlorobenzylidene)amino)oxy)propanoic acid], at TR-α, the fold induction at 0.001 µM is 22.6, the fold induction at 0.01 µM worked out at 48.2, the fold induction at 0.1 µM was found to be 92.2 and the fold induction at 1 µM amounted to 138. In addition, at TR-β, the fold induction at 0.001 µM was 19.2, the fold induction at 0.01 µM was found to be 53.1, the fold induction at 0.1 µM is 78.9 and the fold induction at 1 µM amounted to 90.
Regarding `CCC(ON=Cc1cc(Br)c(Oc2ccc(O)c(C(C)C)c2)c(Br)c1)C(=O)O` (centres unmarked) [Example 13, 2-(((3,5-dibromo-4-(4-hydroxy-3-isopropylphenoxy)benzylidene)amino)oxy)butanoic acid], at TR-α, the fold induction at 0.001 µM is 29.6, the fold induction at 0.01 µM was 63.9, the fold induction at 0.1 µM was found to be 76.8 and the fold induction at 1 µM worked out at 56.9. At TR-β, the fold induction at 0.001 µM turned out to be 23.1, the fold induction at 0.01 µM is 73.4, the fold induction at 0.1 µM is 86.7 and the fold induction at 1 µM came out at 94.6.
In the case of `O=C(O)CON=Cc1cc(Cl)c(Oc2ccc(O)c(-c3ccccc3)c2)c(Cl)c1` [Example 4, 2-(((3,5-dichloro-4-((6-hydroxy-[1,1′-biphenyl]-3-yl)oxy)benzylidene)amino)oxy)acetic acid], at TR-α, the fold induction at 0.001 µM was found to be 11, the fold induction at 0.01 µM came to 9.45, the fold induction at 0.1 µM turned out to be 14 and the fold induction at 1 µM is 35.5. Also, on TR-β, the fold induction at 0.001 µM turned out to be 11.4, the fold induction at 0.01 µM is 10.5, the fold induction at 0.1 µM is 19.3 and the fold induction at 1 µM was determined as 64.4.
As for `CC(ON=Cc1cc(Br)c(Oc2ccc(O)c(S(=O)(=O)NC3CCCCC3)c2)c(Br)c1)C(=O)O` (centres unmarked) [Example 39, 2-(((3,5-dibromo-4-(3-(N-cyclohexylsulfamoyl)-4-hydroxyphenoxy)benzylidene)amino)oxy)propanoic acid], on TR-α, the fold induction at 0.001 µM came to 10.6, the fold induction at 0.01 µM was determined as 11.8, the fold induction at 0.1 µM was 13.5 and the fold induction at 1 µM came to 29.5. Also, at TR-β, the fold induction at 0.001 µM turned out to be 11.5, the fold induction at 0.01 µM was determined as 11.2, the fold induction at 0.1 µM was 15.8 and the fold induction at 1 µM is 40.4.
As for `CC(ON=Cc1cc(Br)c(Oc2ccc(O)c(C(=O)c3ccc(Cl)cc3)c2)c(Br)c1)C(=O)O` (centres unmarked) [Example 26, 2-(((3,5-dibromo-4-(3-(4-chlorobenzoyl)-4-hydroxyphenoxy)benzylidene)amino)oxy)propanoic acid], at TR-α, the fold induction at 0.001 µM was found to be 12.1, the fold induction at 0.01 µM came out at 13.9, the fold induction at 0.1 µM is 34.9 and the fold induction at 1 µM is 64.5. In addition, at TR-β, the fold induction at 0.001 µM was determined as 9.62, the fold induction at 0.01 µM was 13.2, the fold induction at 0.1 µM came out at 41.2 and the fold induction at 1 µM turned out to be 76.2.
In the case of `O=C(O)CON=Cc1cc(Br)c(Oc2ccc(O)c(C(O)c3ccc(Cl)cc3)c2)c(Br)c1` (centres unmarked) [Example 29, 2-(((3,5-dibromo-4-(3-((4-chlorophenyl)(hydroxy)methyl)-4-hydroxyphenoxy)benzylidene)amino)oxy)acetic acid], at TR-α, the fold induction at 0.001 µM stood at 17.6, the fold induction at 0.01 µM is 21.2, the fold induction at 0.1 µM stood at 29.9 and the fold induction at 1 µM was determined as 64.2. Also, at TR-β, the fold induction at 0.001 µM is 10.6, the fold induction at 0.01 µM is 12.1, the fold induction at 0.1 µM is 33.5 and the fold induction at 1 µM was determined as 68.5.
On to `CC(C)(ON=Cc1cc(Br)c(Oc2ccc(O)c(Cc3ccccc3)c2)c(Br)c1)C(=O)O` [Example 22, 2-(((4-(3-benzyl-4-hydroxyphenoxy)-3,5-dibromobenzylidene)amino)oxy)-2-methylpropanoic acid], for which, on TR-α, the fold induction at 0.001 µM was found to be 12.1, the fold induction at 0.01 µM turned out to be 27.2, the fold induction at 0.1 µM was 48.6 and the fold induction at 1 µM was found to be 85.1. On TR-β, the fold induction at 0.001 µM is 9.09, the fold induction at 0.01 µM was 24.9, the fold induction at 0.1 µM was 44.9 and the fold induction at 1 µM came to 73.9.
As for `CC(ON=Cc1cc(Cl)c(Oc2ccc(O)c(C(C)C)c2)c(Cl)c1)C(=O)O` (centres unmarked) [Example 8, 2-(((3,5-dichloro-4-(4-hydroxy-3-isopropylphenoxy)benzylidene)amino)oxy)propanoic acid], on TR-α, the fold induction at 0.001 µM is 12.4, the fold induction at 0.01 µM came to 29.5, the fold induction at 0.1 µM turned out to be 75 and the fold induction at 1 µM was 76.6. On TR-β, the fold induction at 0.001 µM turned out to be 16.3, the fold induction at 0.01 µM is 45.4, the fold induction at 0.1 µM worked out at 85.2 and the fold induction at 1 µM was determined as 89.

Values taken from patent publication US20110301200A1, “THYROID RECEPTOR LIGANDS” (CADILA HEALTHCARE LIMITED, priority 2008, published 2011).
